# Assay results from patent publication US20210114973A1, “PHARMACEUTICAL FORMULATIONS” (First Wave Bio, Inc., priority 2019, published 2021).
# Assays:
# [1] = cited from earlier work
# [2] = Effect of particle size on colonic exposure levels: single rectal dose of niclosamide suspension, blood and rectal mucosa samples; conditions: rabbit; for plasma concentration of niclosamide (maximum measured): rectal administration, 1 hour (time point of maximum plasma concentration)
# Procedure: These preparations of niclosamide were formulated into a suspension. Rabbits were treated with a single dose of these niclosamide suspensions at the dose levels specified. Following dosing, blood samples and rectal mucosa samples were obtained at indicated time points.
"concentration at 1 hour ([2]; colon tissue, other: rectal, 22.5 mg) [ng/mL]",plasma concentration of niclosamide (maximum measured) ([2]; 7.5 mg single dose),plasma concentration of niclosamide (maximum measured) ([2]; 22.5 mg single dose),Structure (SMILES),solubility in acetone ([1]; acetone),"solubility in ether, ethanol and chloroform ([1]; ether, ethanol and chloroform)","water solubility ([1]; water, 20° C.) [µg/mL]"
,,,"O=C(Nc1ccc([N+](=O)[O-])cc1Cl)c1cc(Cl)ccc1O [Niclosamide, 5-chloro-N-(2-chloro-4-nitrophenyl)-2-hydroxybenzamide]",soluble,sparingly soluble,5 to 8
6090,6.576,20.24,"O=C(Nc1ccc([N+](=O)[O-])cc1Cl)c1cc(Cl)ccc1O [milled niclosamide, 5-chloro-N-(2-chloro-4-nitrophenyl)-2-hydroxybenzamide]",,,
